Reference: publication PMC8245078, “Development of novel benzofuran-isatin conjugates as potential antiproliferative agents with apoptosis inducing mechanism in Colon cancer” (Journal of Enzyme Inhibition and Medicinal Chemistry, 2021)
Read-outs that look alike come from different tables or passages of the source.

Legend:
Assay type in all cases: cell-based
SR = test: NCI single dose screening (10 µM); details: Homo sapiens, read-out: GI% (cell growth inhibition percentage)
HOP-92 = test: NCI single dose screening (10 µM); details: Homo sapiens
HOP-62 = test: NCI single dose screening (10 µM); details: Homo sapiens
COLO 205 = test: NCI single dose screening (10 µM); details: Homo sapiens
KM12 = test: NCI single dose screening (10 µM); details: Homo sapiens
SF-539 = test: NCI single dose screening (10 µM); details: Homo sapiens
SF-268 = test: NCI single dose screening (10 µM); details: Homo sapiens
LOX IMVI = test: NCI single dose screening (10 µM); details: Homo sapiens, read-out: GI% (cell growth inhibition percentage)
MDA-MB-435 = test: NCI single dose screening (10 µM); details: Homo sapiens
UACC-257 = test: NCI single dose screening (10 µM); details: Homo sapiens
UACC-62 = test: NCI single dose screening (10 µM); details: Homo sapiens
SK-MEL-2 = test: NCI single dose screening (10 µM); details: Homo sapiens
IGROV1 = test: NCI single dose screening (10 µM); details: Homo sapiens
OVCAR-3 = test: NCI single dose screening (10 µM); details: Homo sapiens
OVCAR-8 = test: NCI single dose screening (10 µM); details: Homo sapiens
OVCAR-4 = test: NCI single dose screening (10 µM); details: Homo sapiens
OVCAR-5 = test: NCI single dose screening (10 µM); details: Homo sapiens
RXF 393 = test: NCI single dose screening (10 µM); details: Homo sapiens
MCF7 = test: NCI single dose screening (10 µM); details: Homo sapiens
BT-549 = test: NCI single dose screening (10 µM); details: Homo sapiens
MDA-MB-231/ATCC = test: NCI single dose screening (10 µM); details: Homo sapiens
[1] = tested on: NCI-55 cancer cell line panel; test: NCI single dose screening (10 µM), whole panel; details: Homo sapiens, read-out: Mean inhibition, % (mean GI%)
[2] = HOP-92, Non-small cell lung cancer, single dose 10^−5 M, read-out: GI% (cell growth inhibition percentage)
[3] = HOP-62, Non-small cell lung cancer, single dose 10^−5 M, read-out: GI% (cell growth inhibition percentage)
[4] = COLO 205, Colon cancer, single dose 10^−5 M, read-out: GI% (cell growth inhibition percentage)
[5] = KM12, Colon cancer, single dose 10^−5 M, read-out: GI% (cell growth inhibition percentage)
[6] = SF-539, CNS cancer, single dose 10^−5 M, read-out: GI% (cell growth inhibition percentage)
[7] = SF-268, CNS cancer, single dose 10^−5 M, read-out: GI% (cell growth inhibition percentage)
[8] = MDA-MB-435, Melanoma, single dose 10^−5 M, read-out: GI% (cell growth inhibition percentage)
[9] = UACC-257, Melanoma, single dose 10^−5 M, read-out: GI% (cell growth inhibition percentage)
[10] = UACC-62, Melanoma, single dose 10^−5 M, read-out: GI% (cell growth inhibition percentage)
[11] = SK-MEL-2, Melanoma, single dose 10^−5 M, read-out: GI% (cell growth inhibition percentage)
[12] = IGROV-1, IGROV1, Ovarian cancer, single dose 10^−5 M, read-out: GI% (cell growth inhibition percentage)
[13] = OVCAR-3, Ovarian cancer, single dose 10^−5 M, read-out: GI% (cell growth inhibition percentage)
[14] = OVCAR-8, Ovarian cancer, single dose 10^−5 M, read-out: GI% (cell growth inhibition percentage)
[15] = OVCAR-4, Ovarian cancer, single dose 10^−5 M, read-out: GI% (cell growth inhibition percentage)
[16] = OVCAR-5, Ovarian cancer, single dose 10^−5 M, read-out: GI% (cell growth inhibition percentage)
[17] = RXF 393, Renal cancer, single dose 10^−5 M, read-out: GI% (cell growth inhibition percentage)
[18] = MCF7, Breast cancer, single dose 10^−5 M, read-out: GI% (cell growth inhibition percentage)
[19] = BT-549, Breast cancer, single dose 10^−5 M, read-out: GI% (cell growth inhibition percentage)
[20] = MDA-MB-231/ATCC, Breast cancer, single dose 10^−5 M, read-out: GI% (cell growth inhibition percentage)
[21] = mean over NCI-55 cell lines, single dose 10^−5 M

Cc1c(C(=O)N/N=C2\C(=O)N(C)c3ccccc32)oc2ccccc12 [Compound 7a]
inhibition at 10 µM (SR; Leukaemia, single dose 10^−5 M): < 10% | inhibition at 10 µM (HOP-92; [2]): < 10% | inhibition at 10 µM (HOP-62; [3]): < 10% | inhibition at 10 µM (COLO 205; [4]): < 10% | inhibition at 10 µM (KM12; [5]): < 10% | inhibition at 10 µM (SF-539; [6]): < 10% | inhibition at 10 µM (SF-268; [7]): < 10% | inhibition at 10 µM (LOX IMVI; Melanoma, single dose 10^−5 M): < 10% | inhibition at 10 µM (MDA-MB-435; [8]): < 10% | inhibition at 10 µM (UACC-257; [9]): < 10% | inhibition at 10 µM (UACC-62; [10]): < 10% | inhibition at 10 µM (SK-MEL-2; [11]): < 10% | inhibition at 10 µM (IGROV1; [12]): 32.8% | inhibition at 10 µM (OVCAR-3; [13]): < 10% | inhibition at 10 µM (OVCAR-8; [14]): < 10% | inhibition at 10 µM (OVCAR-4; [15]): < 10% | inhibition at 10 µM (OVCAR-5; [16]): < 10% | inhibition at 10 µM (RXF 393; [17]): < 10% | inhibition at 10 µM (MCF7; [18]): 28.2% | inhibition at 10 µM (BT-549; [19]): < 10% | inhibition at 10 µM (MDA-MB-231/ATCC; [20]): < 10% | inhibition at 10 µM [1, 21]: 0.09%

COc1ccc2c(c1)/C(=N/NC(=O)c1oc3ccccc3c1C)C(=O)N2 [Compound 5d]
inhibition at 10 µM (SR; Leukaemia, single dose 10^−5 M): 56.5% | inhibition at 10 µM (HOP-92; [2]): 144% | inhibition at 10 µM (HOP-62; [3]): 124% | inhibition at 10 µM (COLO 205; [4]): 77.2% | inhibition at 10 µM (KM12; [5]): 56.2% | inhibition at 10 µM (SF-539; [6]): 62.6% | inhibition at 10 µM (SF-268; [7]): 42.3% | inhibition at 10 µM (LOX IMVI; Melanoma, single dose 10^−5 M): 83.7% | inhibition at 10 µM (MDA-MB-435; [8]): 61% | inhibition at 10 µM (UACC-257; [9]): 50% | inhibition at 10 µM (UACC-62; [10]): 65.7% | inhibition at 10 µM (SK-MEL-2; [11]): 29.1% | inhibition at 10 µM (IGROV1; [12]): 93.7% | inhibition at 10 µM (OVCAR-3; [13]): 166% | inhibition at 10 µM (OVCAR-8; [14]): 62.2% | inhibition at 10 µM (OVCAR-4; [15]): 153% | inhibition at 10 µM (OVCAR-5; [16]): 52.3% | inhibition at 10 µM (RXF 393; [17]): 136% | inhibition at 10 µM (MCF7; [18]): 77.1% | inhibition at 10 µM (BT-549; [19]): 29.9% | inhibition at 10 µM (MDA-MB-231/ATCC; [20]): 76.2% | inhibition at 10 µM [1, 21]: 87.3%

CCCN1C(=O)/C(=N\NC(=O)c2oc3ccccc3c2C)c2cc(Br)ccc21 [Compound 7g]
inhibition at 10 µM (SR): < 10% | inhibition at 10 µM (HOP-92; HOP-92, read-out: GI% (cell growth inhibition percentage)): < 10% | inhibition at 10 µM (HOP-62; HOP-62, read-out: GI% (cell growth inhibition percentage)): < 10% | inhibition at 10 µM (COLO 205; COLO 205, read-out: GI% (cell growth inhibition percentage)): < 10% | inhibition at 10 µM (KM12; KM12, read-out: GI% (cell growth inhibition percentage)): < 10% | inhibition at 10 µM (SF-539; SF-539, read-out: GI% (cell growth inhibition percentage)): < 10% | inhibition at 10 µM (SF-268; SF-268, read-out: GI% (cell growth inhibition percentage)): < 10% | inhibition at 10 µM (LOX IMVI): < 10% | inhibition at 10 µM (MDA-MB-435; MDA-MB-435, read-out: GI% (cell growth inhibition percentage)): < 10% | inhibition at 10 µM (UACC-257; UACC-257, read-out: GI% (cell growth inhibition percentage)): < 10% | inhibition at 10 µM (UACC-62; UACC-62, read-out: GI% (cell growth inhibition percentage)): < 10% | inhibition at 10 µM (SK-MEL-2; SK-MEL-2, read-out: GI% (cell growth inhibition percentage)): < 10% | inhibition at 10 µM (IGROV1; IGROV-1, read-out: GI% (cell growth inhibition percentage)): 22.4% | inhibition at 10 µM (OVCAR-3; OVCAR-3, read-out: GI% (cell growth inhibition percentage)): < 10% | inhibition at 10 µM (OVCAR-8; OVCAR-8, read-out: GI% (cell growth inhibition percentage)): < 10% | inhibition at 10 µM (OVCAR-4; OVCAR-4, read-out: GI% (cell growth inhibition percentage)): < 10% | inhibition at 10 µM (OVCAR-5; OVCAR-5, read-out: GI% (cell growth inhibition percentage)): < 10% | inhibition at 10 µM (RXF 393; RXF 393, read-out: GI% (cell growth inhibition percentage)): < 10% | inhibition at 10 µM (MCF7; MCF7, read-out: GI% (cell growth inhibition percentage)): 13.2% | inhibition at 10 µM (BT-549; BT-549, read-out: GI% (cell growth inhibition percentage)): < 10% | inhibition at 10 µM (MDA-MB-231/ATCC; MDA-MB-231, read-out: GI% (cell growth inhibition percentage)): < 10% | inhibition at 10 µM [1]: -0.8%
